Assay results: ChEMBL document CHEMBL4308864, “Targeting tyrosine kinase: Development of acridone - pyrrole - oxindole hybrids against human breast cancer” (2019)

Key:
Assay type in all cases: functional
HL-60(TB) = assay: Growth inhibition of human HL-60(TB) cells assessed as cell growth at 10^-5 M incubated for 48 hrs by sulforhodamine B assay relative to control; conditions: HL-60, 48 h, read-out: Activity
A549 = assay: Growth inhibition of human A549/ATCC cells assessed as cell growth at 10^-5 M incubated for 48 hrs by sulforhodamine B assay relative to control; conditions: A549, 48 h, read-out: Activity
EKVX = assay: Growth inhibition of human EKVX cells assessed as cell growth at 10^-5 M incubated for 48 hrs by sulforhodamine B assay relative to control; conditions: read-out: Activity
HOP-62 = assay: Growth inhibition of human HOP62 cells assessed as cell growth at 10^-5 M incubated for 48 hrs by sulforhodamine B assay relative to control; conditions: HOP-62, 48 h, read-out: Activity
HOP-92 = assay: Growth inhibition of human HOP92 cells assessed as cell growth at 10^-5 M incubated for 48 hrs by sulforhodamine B assay relative to control; conditions: HOP-92, 48 h, read-out: Activity
NCI-H226 = assay: Growth inhibition of human NCI-H226 cells assessed as cell growth at 10^-5 M incubated for 48 hrs by sulforhodamine B assay relative to control; conditions: NCI-H226, 48 h, read-out: Activity
COLO 205 = assay: Growth inhibition of human COLO205 cells assessed as cell growth at 10^-5 M incubated for 48 hrs by sulforhodamine B assay relative to control; conditions: COLO 205, 48 h, read-out: Activity
HCC 2998 = assay: Growth inhibition of human HCC2998 cells assessed as cell growth at 10^-5 M incubated for 48 hrs by sulforhodamine B assay relative to control; conditions: HCC 2998, 48 h, read-out: Activity
HCT-116 = assay: Growth inhibition of human HCT116 cells assessed as cell growth at 10^-5 M incubated for 48 hrs by sulforhodamine B assay relative to control; conditions: HCT-116, 48 h, read-out: Activity
HT-29 = assay: Growth inhibition of human HT-29 cells assessed as cell growth at 10^-5 M incubated for 48 hrs by sulforhodamine B assay relative to control; conditions: HT-29, 48 h, read-out: Activity
SNB-19 = assay: Growth inhibition of human SNB19 cells assessed as cell growth at 10^-5 M incubated for 48 hrs by sulforhodamine B assay relative to control; conditions: SNB-19, 48 h, read-out: Activity
U-251 = assay: Growth inhibition of human U251 cells assessed as cell growth at 10^-5 M incubated for 48 hrs by sulforhodamine B assay relative to control; conditions: U-251, 48 h, read-out: Activity
Malme-3M = assay: Growth inhibition of human MALME-3M cells assessed as cell growth at 10^-5 M incubated for 48 hrs by sulforhodamine B assay relative to control; conditions: read-out: Activity
M14 = assay: Growth inhibition of human M14 cells assessed as cell growth at 10^-5 M incubated for 48 hrs by sulforhodamine B assay relative to control; conditions: M14, 48 h, read-out: Activity
SK-MEL-2 = assay: Growth inhibition of human SK-MEL-2 cells assessed as cell growth at 10^-5 M incubated for 48 hrs by sulforhodamine B assay relative to control; conditions: SK-MEL-2, 48 h, read-out: Activity
SK-MEL-28 = assay: Growth inhibition of human SK-MEL-28 cells assessed as cell growth at 10^-5 M incubated for 48 hrs by sulforhodamine B assay relative to control; conditions: SK-MEL-28, 48 h, read-out: Activity
UACC-62 = assay: Growth inhibition of human UACC62 cells assessed as cell growth at 10^-5 M incubated for 48 hrs by sulforhodamine B assay relative to control; conditions: UACC-62, 48 h, read-out: Activity
OVCAR-5 = assay: Growth inhibition of human OVCAR5 cells assessed as cell growth at 10^-5 M incubated for 48 hrs by sulforhodamine B assay relative to control; conditions: OVCAR-5, 48 h, read-out: Activity
NCI/ADR-RES = assay: Growth inhibition of human NCI/ADR-RES cells assessed as cell growth at 10^-5 M incubated for 48 hrs by sulforhodamine B assay relative to control; conditions: read-out: Activity
SK-OV-3 = assay: Growth inhibition of human SKOV3 cells assessed as cell growth at 10^-5 M incubated for 48 hrs by sulforhodamine B assay relative to control; conditions: SK-OV-3, 48 h, read-out: Activity
786-0 = assay: Growth inhibition of human 786-0 cells assessed as cell growth at 10^-5 M incubated for 48 hrs by sulforhodamine B assay relative to control; conditions: 786-0, 48 h, read-out: Activity
A498 = assay: Growth inhibition of human A498 cells assessed as cell growth at 10^-5 M incubated for 48 hrs by sulforhodamine B assay relative to control; conditions: A498, 48 h, read-out: Activity
CAKI-1 = assay: Growth inhibition of human Caki1 cells assessed as cell growth at 10^-5 M incubated for 48 hrs by sulforhodamine B assay relative to control; conditions: CAKI-1, 48 h, read-out: Activity
RXF 393 = assay: Growth inhibition of human RXF393 cells assessed as cell growth at 10^-5 M incubated for 48 hrs by sulforhodamine B assay relative to control; conditions: RXF 393, 48 h, read-out: Activity
TK-10 = assay: Growth inhibition of human TK10 cells assessed as cell growth at 10^-5 M incubated for 48 hrs by sulforhodamine B assay relative to control; conditions: TK-10, 48 h, read-out: Activity
PC-3 = assay: Growth inhibition of human PC3 cells assessed as cell growth at 10^-5 M incubated for 48 hrs by sulforhodamine B assay relative to control; conditions: PC-3, 48 h, read-out: Activity
MDA-MB-231 = assay: Growth inhibition of human MDA-MB-231 cells assessed as cell growth at 10^-5 M incubated for 48 hrs by sulforhodamine B assay relative to control; conditions: MDA-MB-231, 48 h, read-out: Activity

| SMILES | growth at 10 µM (HL-60(TB)) [%] | growth at 10 µM (A549) [%] | growth at 10 µM (EKVX) [%] | growth at 10 µM (HOP-62) [%] | growth at 10 µM (HOP-92) [%] | growth at 10 µM (NCI-H226) [%] | growth at 10 µM (COLO 205) [%] | growth at 10 µM (HCC 2998) [%] | growth at 10 µM (HCT-116) [%] | growth at 10 µM (HT-29) [%] | growth at 10 µM (SNB-19) [%] | growth at 10 µM (U-251) [%] | growth at 10 µM (Malme-3M) [%] | growth at 10 µM (M14) [%] | growth at 10 µM (SK-MEL-2) [%] | growth at 10 µM (SK-MEL-28) [%] | growth at 10 µM (UACC-62) [%] | growth at 10 µM (OVCAR-5) [%] | growth at 10 µM (NCI/ADR-RES) [%] | growth at 10 µM (SK-OV-3) [%] | also measured |
| --- | --- | --- | --- | --- | --- | --- | --- | --- | --- | --- | --- | --- | --- | --- | --- | --- | --- | --- | --- | --- | --- |
| O=C1NC(=O)C(=Cc2cccn2CCCCCCn2c3ccccc3c(=O)c3ccccc32)C(=O)N1 | 91.3 | 95.6 | 100 | 93.1 | 85 | 89.5 | 105 | 101 | 71.2 | 105 | 94.2 | 90.5 | 112 | 94.4 | 107 | 111 | 82.1 | 98.3 | 92.9 | 99.8 | growth at 10 µM (786-0): 97.9%; growth at 10 µM (A498): 93.1%; growth at 10 µM (CAKI-1): 92.8%; growth at 10 µM (RXF 393): 106%; growth at 10 µM (TK-10): 126%; growth at 10 µM (PC-3): 87.7%; growth at 10 µM (MDA-MB-231): 94.6% |
| O=C1Nc2ccccc2/C1=C/c1cccn1CCCCCCn1c2ccccc2c(=O)c2ccccc21 | 54.5 | 87.8 | 65.3 | 63.2 | 56.4 | 72.7 | 50.5 | 42.8 | 70.4 | 92.9 | 97.1 | 92.4 | 90.7 | 78.2 | 86.2 | 111 | 50.3 | 82.2 | 71.8 | 87.2 | growth at 10 µM (786-0): 103%; growth at 10 µM (A498): 103%; growth at 10 µM (CAKI-1): 72.6%; growth at 10 µM (RXF 393): 99.2%; growth at 10 µM (TK-10): 78.7%; growth at 10 µM (PC-3): 40.1%; growth at 10 µM (MDA-MB-231): 75.4% |
| O=C1/C(=C\c2cccn2CCCCn2c3ccccc3c(=O)c3ccccc32)c2ccccc2N1c1c(Cl)cccc1Cl | 106 | 93 | 88.8 | 104 | 71 | 89.5 | 70 | 46.7 | 98.4 | 110 | 98.2 | 96 | 106 | 96 | 105 | 111 | 82.1 | 104 | 101 | 105 | growth at 10 µM (786-0): 103%; growth at 10 µM (A498): 116%; growth at 10 µM (CAKI-1): 87.4%; growth at 10 µM (RXF 393): 97.5%; growth at 10 µM (TK-10): 108%; growth at 10 µM (PC-3): 78.9%; growth at 10 µM (MDA-MB-231): 98.4% |
